pKd: −log10 of the molar value.
What was measured:
[1] = system: Vδ2+ T cells transduced with RACR-FRB-mCherry; assay: RACR-expansion of blood-derived Vδ2+ T cells; type: cell-based, human; settings: 10 nM, days 14 and 21
Method: On day 14, an aliquot of the cells was collected and washed, stained for V32, and RACR transduction was measured by mCherry. Percent Vδ2+ RACR+ cells, as well as number of transduced V32+ cells measured by counting beads was assessed by detection of V82 stain and mCherry via flow cytometry. Similarly, on day 21, an aliquot of cells was again measured for percent and number of Vδ2+ RACR+ cells via flow cytometry.

[2] = system: common lymphoid progenitors (iPSC line WTC11); assay: RACR-signaling replacing common gamma chain cytokines in CLP to CIL differentiation; type: cell-based, human; settings: 4 nM
[3] = system: iPSC-derived lymphoid progenitor and precursor cells; assay: RACR-driven differentiation and expansion of iCIL cells from Day 26 lymphoid progenitors; type: cell-based, human; settings: AP21967 100 nM, no other cytokine
Description: The RACR-system was utilized for differentiation to iPSC-derived CIL cells (iCIL cells). The iPSC cell line ATCC-BXS0117 (ATCC #ACS-1031) was differentiated into lymphoid progenitors through the STEMdiff NK cell kit ([…]® Technologies, #100-0170) as described in Example 2 above, up until the Day 26 timepoint. The percentage of cells containing common lymphoid progenitors (CD45+/CD5+/CD7+), CIL precursors (CD45+/CD5−/CD7+), and early CIL cells (CD45+/CD5−/CD7+/CD56+) is seen in FIG. 3D with ˜50% of the cells presenting as CIL precursors and ˜25% of total cells presenting as early CIL cells. […] Activation beads (#130-094-483) were added to cells at a 2:1 ratio and cells were placed in 37° C. incubator overnight to increase transduction of cells.
The cells were engineered with a polynucleotide encoding the RACR synthetic cytokine as described in Example 1, a Tag (anti-FITC) CAR (SEQ ID NO: 13), and an FRB domain for expression of FRB as a diffusible soluble protein in the engineered cell, in which the components were separated by a cleavable linker. The polynucleotide construct payload is designated Tag (anti-FITC) CAR-P2A-FRB-P2A-RACR. […] An aliquot of cells was collected weekly, counted on the Vicell Blu automated cell counter, and stained for CD16 clone 3G8, CD56 clone HCD56, CD45 clone 2D1. […]

[4] = system: PSMA-positive human prostate cancer cells; settings: DUPA-(99m)Tc; cited from earlier work

| Structure (SMILES) | percentage and total number of Vδ2+ RACR+ cells [1] | percent of RACR-CAR+ CD56+ cells ([2]; Day 40, all four media conditions) | fold change in RACR-CAR+ cells ([2]; media with UM729 alone (None)) | expansion (total number of TagCAR positive cells) [3] | pKd [4] |
| --- | --- | --- | --- | --- | --- |
| CO[C@@H]1C[C@H](C[C@@H](C)C2CC(=O)[C@H](C)/C=C(\C)[C@@H](O)[C@@H](OC)C(=O)[C@H](C)C[C@@H](C)/C=C/C=C/C=C(\C)[C@H](c3c[nH]c4c(C)cccc34)C[C@H]3CC[C@@H](C)[C@@](O)(O3)C(=O)C(=O)N3CCCC[C@H]3C(=O)O2)CC[C@@H]1O (some centres unmarked) [AP21967] | increased in both percentage and total number of cells | increase in the percent of RACR-CAR+ CD56+ cells | largest fold change | sufficient to drive iCIL expansion |  |
| O=C(O)CC[C@H](NC(=O)N[C@@H](CCC(=O)O)C(=O)O)C(=O)O [DUPA] |  |  |  |  | 7.85 |

— patent publication US20250041415A1, “CYTOTOXIC INNATE LYMPHOID CELL AND USES THEREOF” (Umoja Biopharma, Inc., priority 2021, published 2025)
